Where two headings read alike, the source gives them in different places.
Tests used:
[1] = molecular target: recombinant human His-tagged MDM2 protein (residues 1-118) (Homo sapiens (Human), UniProt Q00987); experiment: Fluorescence-polarization MDM2 binding assay; details: Table 19A; FP binding assay; read-out: MDM2 IC50;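 also: fluorescence polarization read after three hours of incubation in potassium phosphate buffer containing bovine gamma globulin and Triton X-100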
[2] = system: cancer cell lines with wild-type p53 / mutated or deleted p53 (ATCC); experiment: Cell growth assay (WST-8), other cancer cell lines; type: cell-based; details: Homo sapiens
[3] = Pharmacokinetic studies in rats; type: in vivo, rat; details: for oral bioavailability / oral pharmacokinetics in rats (in words): oral dosing; for bioavailability / half-life / AUC(0-t) / Cmax: rat, plasma, male rats, oral dose 15 mg/kg; for AUC(0-t): read-out: AUC(0-t); for Cmax: read-out: Cmax
Description: Pharmacokinetic studies on MDM2 inhibitors were carried out in rat. For comparison, the MDM2 inhibitor, AT-219, was also studied.

[4] = In vitro microsomal stability, rat; type: in vitro ADME; details: for Microsomal stability, % remaining: Rat Microsome, same batch; for microsomal stability (in words) / % of compound remaining when incubated in rat liver microsomes with NADPH: rat liver microsomes; for half-life: rat, liver microsomes, rat liver microsomes with NADPH
[5] = system: Isogenic HCT-116 colon cancer cell lines; experiment: cells; type: cell-based; details: Homo sapiens, cell growth;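 also: cells grown in 96-well plates in McCoy's 5A medium with 10% FBS, exposed to compound for 4 days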
Description: Cells were seeded in 96-well flat bottom cell culture plates at a density of 2−3×10^3 cells/well with compounds and incubated for 4 days.

[6] = In vitro microsomal stability, human; type: in vitro ADME; details: for Microsomal stability, % remaining: Human Microsome, same batch; for half-life: human, liver microsomes, human liver microsomes with NADPH
[7] = LNCaP, Table 19A, LNCAP cells, p53 wild-type, cell growth, read-out: LNCAP (p53 wild-type) IC50
[8] = PC-3, Table 19A, PC-3 cells, deleted p53, cell growth, read-out: PC-3 (deleted p53) IC50
[9] = HCT-116, read-out: HCT-116 (p53-/-) IC50, Table 19A, HCT-116 p53-/-
[10] = HCT-116, read-out: HCT-116 (p53 wild-type) IC50, Table 19A, HCT-116 p53 wild-type

recombinant human His-tagged MDM2 protein (residues 1-118), sequence (Q00987 1-118): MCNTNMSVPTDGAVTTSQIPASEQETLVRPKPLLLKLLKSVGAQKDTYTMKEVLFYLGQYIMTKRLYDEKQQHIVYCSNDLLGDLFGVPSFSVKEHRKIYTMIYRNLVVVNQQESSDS

Q: Which results are given for `CC(C)(C)C[C@H]1N[C@@H](C(=O)NCC[C@H](O)CN2CC[C@@H](O)C2)[C@H](c2cccc(Cl)c2)[C@@]12C(=O)Nc1cc(Cl)c(F)cc12` [MI-519-29]?
A: IC50 [1]: < 1 µM; IC50 [2, 7]: < 5 µM; IC50 [2, 8]: > 10 µM; oral bioavailability / oral pharmacokinetics in rats (in words) [3]: much inferior oral pharmacokinetic parameters; bioavailability [3]: < 1%; half-life [3]: 6.9 ± 7.5 h; AUC(0-t) [3]: 28 ± 15 µg·h/mL; Cmax [3]: 51 ± 30 ng/mL; Microsomal stability, % remaining ([4]; 0 min): 100.00%; Microsomal stability, % remaining ([4]; 5 min): 93.42%; Microsomal stability, % remaining ([4]; 10 min): 84.91%; Microsomal stability, % remaining ([4]; 15 min): 82.81%; Microsomal stability, % remaining ([4]; 30 min): 70.75%; Microsomal stability, % remaining ([4]; 45 min): 71.89%; Microsomal stability, % remaining ([4]; 60 min): 69.91%; microsomal stability (in words) [4]: improved stability over MI-219; % of compound remaining when incubated in rat liver microsomes with NADPH ([4]; 0 min): 100.00%; % of compound remaining when incubated in rat liver microsomes with NADPH ([4]; 5 min): 93.42%; % of compound remaining when incubated in rat liver microsomes with NADPH ([4]; 10 min): 84.91%; % of compound remaining when incubated in rat liver microsomes with NADPH ([4]; 15 min): 82.81%; % of compound remaining when incubated in rat liver microsomes with NADPH ([4]; 30 min): 70.75%; % of compound remaining when incubated in rat liver microsomes with NADPH ([4]; 45 min): 71.89%; % of compound remaining when incubated in rat liver microsomes with NADPH ([4]; 60 min): 69.91%; half-life [4]: 1.02 h; IC50 [5, 9]: > 10 µM; IC50 [5, 10]: < 5 µM; Microsomal stability, % remaining ([6]; 0 min): 100.00%; Microsomal stability, % remaining ([6]; 5 min): 70.67%; Microsomal stability, % remaining ([6]; 10 min): 56.31%; Microsomal stability, % remaining ([6]; 15 min): 49.52%; Microsomal stability, % remaining ([6]; 30 min): 45.48%; Microsomal stability, % remaining ([6]; 45 min): 40.08%; Microsomal stability, % remaining ([6]; 60 min): 35.28%; % of compound remaining when incubated in human liver microsomes with NADPH ([6]; human liver microsomes, 0 min): 100.00%; % of compound remaining when incubated in human liver microsomes with NADPH ([6]; human liver microsomes, 5 min): 70.67%; % of compound remaining when incubated in human liver microsomes with NADPH ([6]; human liver microsomes, 10 min): 56.31%; % of compound remaining when incubated in human liver microsomes with NADPH ([6]; human liver microsomes, 15 min): 49.52%; % of compound remaining when incubated in human liver microsomes with NADPH ([6]; human liver microsomes, 30 min): 45.48%; % of compound remaining when incubated in human liver microsomes with NADPH ([6]; human liver microsomes, 45 min): 40.08%; % of compound remaining when incubated in human liver microsomes with NADPH ([6]; human liver microsomes, 60 min): 35.28%; half-life [6]: 0.201 h

Q: What does the source list for `CC(C)(C)C[C@H]1N[C@@H](C(=O)NCC[C@H](O)CN2CCCC2)[C@H](c2cccc(Cl)c2)[C@@]12C(=O)Nc1cc(Cl)c(F)cc12` [MI-519-28]?
A: IC50 [1]: < 2 µM; IC50 [2, 7]: < 2 µM; IC50 [2, 8]: 4.1 ± 0.2 µM; oral bioavailability / oral pharmacokinetics in rats (in words) [3]: much inferior oral pharmacokinetic parameters; bioavailability [3]: 8.4%; half-life [3]: 1.6 ± 0.2 h; AUC(0-t) [3]: 419 ± 239 µg·h/mL; Cmax [3]: 102 ± 46 ng/mL; Microsomal stability, % remaining ([4]; 0 min): 100.00%; Microsomal stability, % remaining ([4]; 5 min): 92.34%; Microsomal stability, % remaining ([4]; 10 min): 87.59%; Microsomal stability, % remaining ([4]; 15 min): 86.13%; Microsomal stability, % remaining ([4]; 30 min): 71.97%; Microsomal stability, % remaining ([4]; 45 min): 65.40%; Microsomal stability, % remaining ([4]; 60 min): 61.79%; microsomal stability (in words) [4]: improved stability over MI-219; % of compound remaining when incubated in rat liver microsomes with NADPH ([4]; 0 min): 100.00%; % of compound remaining when incubated in rat liver microsomes with NADPH ([4]; 5 min): 92.34%; % of compound remaining when incubated in rat liver microsomes with NADPH ([4]; 10 min): 87.59%; % of compound remaining when incubated in rat liver microsomes with NADPH ([4]; 15 min): 86.13%; % of compound remaining when incubated in rat liver microsomes with NADPH ([4]; 30 min): 71.97%; % of compound remaining when incubated in rat liver microsomes with NADPH ([4]; 45 min): 65.40%; % of compound remaining when incubated in rat liver microsomes with NADPH ([4]; 60 min): 61.79%; half-life [4]: 1.24 h; IC50 [5, 9]: > 5 µM; IC50 [5, 10]: < 2 µM; Microsomal stability, % remaining ([6]; 0 min): 100.00%; Microsomal stability, % remaining ([6]; 5 min): 91.87%; Microsomal stability, % remaining ([6]; 10 min): 89.02%; Microsomal stability, % remaining ([6]; 15 min): 77.40%; Microsomal stability, % remaining ([6]; 30 min): 66.83%; Microsomal stability, % remaining ([6]; 45 min): 55.85%; Microsomal stability, % remaining ([6]; 60 min): 53.78%; microsomal stability (in words) ([6]; human liver microsomes): improved stability over MI-219; % of compound remaining when incubated in human liver microsomes with NADPH ([6]; human liver microsomes, 0 min): 100.00%; % of compound remaining when incubated in human liver microsomes with NADPH ([6]; human liver microsomes, 5 min): 91.87%; % of compound remaining when incubated in human liver microsomes with NADPH ([6]; human liver microsomes, 10 min): 89.02%; % of compound remaining when incubated in human liver microsomes with NADPH ([6]; human liver microsomes, 15 min): 77.40%; % of compound remaining when incubated in human liver microsomes with NADPH ([6]; human liver microsomes, 30 min): 66.83%; % of compound remaining when incubated in human liver microsomes with NADPH ([6]; human liver microsomes, 45 min): 55.85%; % of compound remaining when incubated in human liver microsomes with NADPH ([6]; human liver microsomes, 60 min): 53.78%; half-life [6]: 0.902 h

Reference: patent US9079913B2, “Spiro-oxindole MDM2 antagonists” (The Regents of the University of Michigan, priority 2009, dated 2015)
